Measurements: patent US20050249818A1, “Polycationic antimicrobial therapeutic” (priority 2004, published 2005)

Tested on: C. albicans #5
Type: in vivo
Description: Five-week-old female CD-1 mice were purchased from Charles River Laboratories. Mice were placed in cages in groups of five. To immunosuppress the mice and allow for the establishment of mucosal infection, 5-FU was given intravenously once every 7 days, starting on day-2. Antibiotics were given in the drinking water in autoclaved bottles to reduce potential confounding secondary bacterial infections. Gentamycin at 0.2 mg/ml, clindamycin at 1 mg/ml, vancomycin 1 mg/ml were added to sterile drinking water. Bottles and drinking water were changed every day. Imipenem is given at 5 mg/mouse (IP, QD). Antibiotics were begun on day-3.
C. albicans #5 was transferred from storage at −80° C. and streaked for isolation on Sabouraud Dextrose Agar plates with chloramphenicol. The plates were incubated at 35° C. for 48 hours. The organisms were inoculated in sterile bottles each containing 100 ml of SAAMF broth and incubated for 48 hours at 35° C. on a gyratory shaker. C. albicans was harvested by transferring the broth culture to sterile 50 ml centrifuge tubes and centrifuged for 15 minutes at 2000 RPM. The cells were washed once with saline and then suspended in saline. The cells were counted using a hemacytometer. Inoculum dilutions were made in sterile water. The final inoculum was 2×10^8 cells/ml of drinking sterile water plus antibiotics. The inoculum viability determined by plating serial dilutions on SDA plates with chloramphenicol was 1.85×10^8 cells per ml. Plates were incubated overnight at 35° C. for verification count of the inoculum.
In the morning before the preparation of the inoculum the drinking bottles were removed 8 hours prior to replacement with the inoculum suspension of C. albicans. The mice were allowed to drink from this suspension for 24 hours at which time the inoculum suspension was removed and replaced with drinking water containing antibiotics (day 0).
Beginning on day 4 postinfection, mice were untreated or treated with either, Surfacine D™ diluent (undiluted), 3% Surfacine D, PEG dilutent or 1% clotrimazole.
PEG 400, 1% clotrimazole in PEG400, or given no treatment. Treatments were done for 10 consecutive days and were given twice daily. Treatments were done by dipping a sterile calcium alginate swab into the solution and then swabbing the oral cavity of the mouse to ensure coverage with the solution. It was not necessary to anesthetize the animals to perform the treatments. Treatment ended on day 13 postinfection.
On day 15 postinfection all surviving mice were euthanatized using CO2 gas. The tongue of each mouse was swabbed with sterile calcium alginate swab and the swab placed in 0.4 ml of 1×PBS. The swab in PBS was vigorously mixed with a vortex mixer to dissolve the alginate and release the organisms into suspension, and two 10-fold dilutions were made and plated in duplicate on SDA without chloramphenicol.
Survival was analyzed using a log rank test and comparative CFU between groups was analyzed using a Mann-Whitney U test. A log10 value of 6.5 was assigned as CFU for data points missing due to the death of the animal. This value is arbitrarily set to be higher than any burden recovered from surviving mice and assures that death is considered as a worse outcome than is survival regardless of burden.

Structure (SMILES): Clc1ccccc1C(c1ccccc1)(c1ccccc1)n1ccnc1 [1% clotrimazole, clotrimazole]
- reduction in CFU in comparison with the untreated controls (CFU recovered from the tongue, day 15 postinfection): ~30 fold
- ranking among the treatments (in vivo): most effective of the treatments
- behavioral observations during treatments (in vivo, po): did not exhibit these behaviors or symptoms
- deaths (mice, oral swab twice daily for 10 days, to day 15 postinfection): one
- gross pathological appearance of the tongue mucosal surface at necropsy (surviving mice, day 15 postinfection): normal mucosal surface appearance
